Laboratory results: PubChem BioAssay AID248 (DTP/NCI, 2004)
Where “and” joins values, the source holds several entries; their conditions need not be identical. Equal values may be shown once. Inconclusive results and toxic doses are left out. Rule as the data show it: active = T/C of 150% or more; inactive = T/C below 125%.

Test system: L1210 leukemia ip in BDF1 mice, survival T/C
Assay: NCI In Vivo Anticancer Drug Screen. Data for tumor model L1210 Leukemia (intraperitoneal) in B6D2F1 (BDF1) mice
Conditions: endpoint: mean survival time, higher = longer survival
How it was run: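 Transplantable tumor model; survival measured in treated vs vehicle control mice. Value = treated/control.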

[1] = dose: 100.0 mg/kg/injection, schedule: Q01DX001 (ip), vehicle: carboxymethylcellulose (CMC)
[2] = dose: 200.0 mg/kg/injection, schedule: Q01DX001 (ip), vehicle: carboxymethylcellulose (CMC)
[3] = dose: 500.0 mg/kg/injection, schedule: Q01DX Z (ip), vehicle: saline
[4] = dose: 100.0 mg/kg/injection, schedule: Q04DX003 (ip), vehicle: saline
[5] = dose: 200.0 mg/kg/injection, schedule: Q04DX003 (ip), vehicle: saline
[6] = dose: 400.0 mg/kg/injection, schedule: Q04DX003 (ip), vehicle: saline
[7] = dose: 100.0 mg/kg/injection, schedule: Q01DX009 (ip), vehicle: saline
[8] = dose: 200.0 mg/kg/injection, schedule: Q01DX009 (ip), vehicle: saline
[9] = dose: 100.0 mg/kg/injection, schedule: Q01DX009 (ip), vehicle: Klucel (hydroxypropylcellulose) (HPC)
[10] = dose: 100.0 mg/kg/injection, schedule: Q04DX003 (ip), vehicle: Klucel (hydroxypropylcellulose) (HPC)
[11] = dose: 200.0 mg/kg/injection, schedule: Q01DX009 (ip), vehicle: Klucel (hydroxypropylcellulose) (HPC)
[12] = dose: 200.0 mg/kg/injection, schedule: Q04DX003 (ip), vehicle: Klucel (hydroxypropylcellulose) (HPC)
[13] = dose: 400.0 mg/kg/injection, schedule: Q04DX003 (ip), vehicle: Klucel (hydroxypropylcellulose) (HPC)

Measured: T/C

O=C(O)c1ccc2c(c1)C(=O)c1cc([N+](=O)[O-])ccc1-2
inactive: [1] 102 % of control | [2] 102 % of control

NC(N)=N/N=C/c1ccccc1C(=O)O
inactive: dose: 62.5 mg/kg/injection, schedule: Q01DX Z (ip), vehicle: saline 106 % of control | dose: 125.0 mg/kg/injection, schedule: Q01DX Z (ip), vehicle: saline 106 % of control | dose: 250.0 mg/kg/injection, schedule: Q01DX Z (ip), vehicle: saline 101 % of control | [3] 100 % of control

c1ccc(CSC(Cc2ccccc2)(SCc2ccccc2)c2ccccc2)cc1
inactive: dose: 50.0 mg/kg/injection, schedule: Q01DX001 (ip), vehicle: saline 102 % of control | dose: 100.0 mg/kg/injection, schedule: Q01DX001 (ip), vehicle: saline 104 % of control | dose: 200.0 mg/kg/injection, schedule: Q01DX001 (ip), vehicle: saline 98 % of control | dose: 400.0 mg/kg/injection, schedule: Q01DX001 (ip), vehicle: saline 104 % of control

CNC(C)(C)CO
inactive: [4] 100 % of control | [5] 107 % of control | [6] 104 % of control

CN(C)CCCNc1n[nH]c2cccc(Cl)c12
inactive: dose: 50.0 mg/kg/injection, schedule: Q01DX009 (ip), vehicle: saline 104 % of control | [7] 96 % of control | [8] 104 % of control

O=S(=O)(OCC(F)(F)F)c1ccccc1
inactive: [9] 103 % of control | [10] 97 % of control | [11] 101 % of control | [12] 102 % of control | [13] 103 % of control

CC1(C)Cc2ccccc2C(c2ccccn2)=N1
inactive: [10] 96 % of control | [12] 112 % of control | [13] 112 % of control

CC1([N+](=O)[O-])COP(=O)(Nc2cccc(Cl)c2)OC1 (configuration not stated)
inactive: [1] 95 % of control | [2] 95 % of control | dose: 400.0 mg/kg/injection, schedule: Q01DX001 (ip), vehicle: carboxymethylcellulose (CMC) 101 % of control

CN=NC(C)C
inactive: dose: 100.0 mg/kg/injection, schedule: Q01DX001 (ip), vehicle: saline with Tween-80 97 % of control | dose: 200.0 mg/kg/injection, schedule: Q01DX001 (ip), vehicle: saline with Tween-80 107 % of control | dose: 400.0 mg/kg/injection, schedule: Q01DX001 (ip), vehicle: saline with Tween-80 112 % of control

CC(C)OC(=O)Cc1cccc2ccccc12
inactive: dose: 222.0 mg/kg/injection, schedule: Q01DX Z (ip), vehicle: saline 98 % of control | dose: 333.0 mg/kg/injection, schedule: Q01DX Z (ip), vehicle: saline 88 % of control | [3] 95 % of control

CCCC(=O)c1ccc(OC)c(OC)c1
inactive: [9] 101 % of control | [11] 95 % of control

CC1(C)N=C(N)N=C(N)N1c1ccc(Cl)c(Cl)c1
inactive: dose: 1.0 mg/kg/injection, schedule: Q01DX009 (ip), vehicle: saline 111 % of control | dose: 1.25 mg/kg/injection, schedule: Q01DX009 (ip), vehicle: saline 109 % of control | dose: 2.5 mg/kg/injection, schedule: Q01DX009 (ip), vehicle: saline 109 % of control and 117 % of control | dose: 5.0 mg/kg/injection, schedule: Q01DX001 (ip), vehicle: saline 105 % of control | dose: 5.0 mg/kg/injection, schedule: Q01DX009 (ip), vehicle: saline 119 % of control | dose: 10.0 mg/kg/injection, schedule: Q01DX001 (ip), vehicle: saline 102 % of control and 106 % of control | dose: 10.0 mg/kg/injection, schedule: Q01DX009 (ip), vehicle: saline 117 % of control and 118 % of control | dose: 20.0 mg/kg/injection, schedule: Q01DX001 (ip), vehicle: saline 105 % of control and 106 % of control | dose: 20.0 mg/kg/injection, schedule: Q01DX009 (ip), vehicle: saline 92 % of control | dose: 36.0 mg/kg/injection, schedule: Q01DX009 (ip), vehicle: saline 88 % of control | dose: 40.0 mg/kg/injection, schedule: Q01DX001 (ip), vehicle: saline 107 % of control and 92 % of control

CCOC(CN)OCC
inactive: [7] 114 % of control | [4] 112 % of control | [8] 107 % of control | [5] 102 % of control | dose: 400.0 mg/kg/injection, schedule: Q01DX009 (ip), vehicle: saline 106 % of control | [6] 97 % of control
